Measured values from patent US20220257569A1, “INDOLE-OXADIAZOLE COMPOUNDS AND THEIR THERAPEUTIC USE” (THE GOVERNING COUNCIL OF THE UNIVERSITY OF TORONTO, priority 2018, published 2022).
“Also recorded” adds a separate entry of the source.

Assays:
GluN1KD mice = assay: Open field test in GluN1KD mice and WT littermates; format: in vivo; settings: 10 mg/kg; for Locomotor Activity (total distance traveled) / Stereotypy (total stereotypic movements) / Vertical Activity (total): mean±SEM
Description: Functional NMDARs are composed of a common GluN1 subunit and one of four GluN2 subunits (GluN2A-GluN2D) combined in an undetermined ratio to make the heteromeric receptor complex. Recent studies using post mortem prefrontal cortex samples from patients with SCZ and depression, display a series of changes in NMDAR regulation. Endocannabinoids, via CB1Rs, control the presence of NR1 C1 subunits in the neural membrane which has implications for psychosis and SCZ. […] The GluN1KD (NMDAR hypofunction model) mouse line expresses 5-10% of the normal level of the subunit. GluN1KD mice display behavioural abnormalities that have been related to SCZ; these behaviours are normalized by the antipsychotics haloperidol and clozapine. At the dopamine level, GluN1KD mice have remodelled dopamine neurons, leading to a state of hyperdopaminergia, manifesting as an increase in tonic firing rates of dopaminergic neurons (Ferris et al., 2014).
Adult (>P70) GluN1-knockdown (GluN1KD—F1: C571Bl/6J x 129S1/SvlmJ) and DAT-knockout (DATKO—C57Bl/6J), balanced for sex, were treated with either vehicle (1:1:18-Tween80:95% ethanol:saline) or a novel CB1 negative allosteric modulator (CB1 NAM), ABM300, at 10 mg/kg, was tested in behavioural assays, and compared to littermate controls. Locomotor, stereotypic movements and vertical activity were tested, along with anxiety/mania and sensorimotor gating behaviours. All data were analyzed with two- or three-way ANOVA, as appropriate, and corrected for multiple comparisons.
Classically, locomotor output has been used as a gold standard for the measure of dopamine system dysfunction. The role of dopamine in movement control is well defined and, in its simplest forms, testing for hyperactivity is based on the premise that enhanced dopaminergic activity in rodents leads to enhanced motor activity (van den Buuse et al., 2010). Locomotor, stereotypic and vertical activity was recorded using digital activity monitors, quantifying horizontal and vertical activity, along with repetitive behaviour, via infrared beam breaks. GluN1 KD and DATKO display basal hyperactivity, with increases in stereotypic behaviours which can be ameliorated with antipsychotics (Peleg-Raibstein et al., 2008).

mice fed a HFD diet = assay: Non-alcoholic fatty liver disease (NAFLD) model, high fat diet mice; format: in vivo
Protocol: Hepatic triglycerides were measured using an ethanolic-KOH saponification method for lysing liver tissue and hydrolyzing triglyceride molecules to release free glycerol.
Serum ALT, a marker for liver damage, was assessed using an Infinity™ ALT Liquid Stable Reagent (ThermoFisher).
A) A representative vehicle-treated liver is characterized by extensive cytoplasmic clearing indicative of both microvesicular and macrovesicular steatosis. […] Formalin-fixed livers were sectioned at […] and stained using standard H&E staining.
A) A representative vehicle-treated liver is characterized by regions of large ORO-stained vacuoles. […] Frozen OCT-fixed livers were cryosectioned at […] and stained using a conventional ORO staining technique, which stains for neutral lipids.
Diet-induced obese (DIO) mouse models can recapitulate the endocrine and metabolic dysfunction observed in obese humans, and thus serve as ideal preclinical models fortesting novel therapeutic compounds. To induce fatty liver or NAFL, male C57BL/6 mice (n=10 vehicle; n=10 CB1 NAM) are fed a high fat diet (60% calories from fat, TD.06414) for a minimum of 8 weeks starting at 6 weeks of age. Control mice (n=10; vehicle TD.08806) are fed a diet consisting of 10% calories from fat. Mice are weighed weekly to monitor weight gain, and food consumption assessed as the average amount of food consumed per day to determine a potential central effect on appetite suppression. […] Mice are dosed daily with 5 or 10 mg/kg indole-oxadiazole or vehicle (5% ethanol: 5% Tween 80:90% saline) by i.p. administration. After 28 days of administration, glucose tolerance and insulin tolerance tests are conducted on separate days. Blood is collected by terminal cardiac puncture under isoflurane anesthetic followed by cervical dislocation to collect sufficient volumes for the subsequent measurement of multiple analytes (insulin, ALT, triglycerides, adiponectin, leptin). Liver is weighed and collected in formalin (H&E staining for histopathology) and OCT (Oil Red O staining for lipid) or snap frozen for mRNA, protein and the assessment of hepatic triglycerides. Gene expression analyses is conducted to assess the levels of CB1 receptor, FAAH, and various lipogenic and fatty acid transport genes.

[1] = Rat liver microsomal stability assay; format: in vitro ADME; settings: pooled rat liver microsomes 0.5 mg/mL, 3 μM compound, NADPH, 37° C., 45 min
Protocol: Metabolic stability of indole-oxadiazole derivatives of Formula I was measured by determination of the rate of compound disappearance when incubated in the presence of human or rat liver microsomes. Liver microsomes are prepared from the endoplasmic reticulum of hepatocytes and are the primary source of the most important enzymes (cytochrome P450) involved in drug metabolism. Study of drug stability in the presence of liver microsomes is accepted as a valuable model permitting rapid prediction of in vivo drug stability.
Human and rat liver microsomes were obtained from commercial sources. Test compounds (3 μM) were incubated with pooled liver microsomes (male and female). Samples were incubated for a 45 minute period and removed at 5 time points and test compounds were analysed by LC-MS/MS.
Microsomes (final protein concentration 0.5 mg/mL), 0.1 M phosphate buffer pH 7.4, and test compound (final concentration 3 μM; diluted from 10 mM stock solution to give a final DMSO concentration of 0.25%) were incubated at 37° C. prior to the addition of NADPH (final concentration 1 mM) to initiate the reaction. The final incubation volume was 25 μL. A control incubation was included for each compound tested, where 0.1 M phosphate buffer pH 7.4 was added instead of NADPH. The control compounds testosterone and 7-hydroxycoumarin were included in each experiment and all incubations were performed singularly for each compound.
Each compound was incubated for 0, 5, 15, 30, and 45 minutes. The control (minus NADPH) was incubated for 45 minutes only. The reactions were stopped by the addition of 50 μL methanol containing internal standard at the appropriate time points. The incubation plates were centrifuged at 2500 rpm for 20 minutes at 4° C. to precipitate the protein.
Following protein precipitation, the sample supernatants were combined in cassettes of up to 4 compounds and analysed using standard LC-MS/MS conditions.
From a plot of the natural logarithm of the peak area ratio (i.e., the ratio of compound peak area:internal standard peak area) against time, the gradient of the line was determined. Subsequently, half-life and intrinsic clearance were calculated using the equations below:
Eliminated rate constant (k)=(−gradient).

[2] = WT (F1: C57Bl/6J x 129S1/SvlmJ) mice, open field
[3] = HFD 8 weeks, then 10 mg/kg daily for 4 weeks
[4] = HFD 8 weeks, then 10 mg/kg daily for 4 weeks, non-fasted mice
[5] = mouse model of fatty liver disease

With `CCc1c(-c2nnc(Nc3ccccc3)o2)[nH]c2ccc(Cl)cc12` [ABM300, 5-(5-Chloro-3-ethyl-1H-indol-2-yl)-N-phenyl-1,3,4-oxadiazol-2-amine] the “effect on hyperactivity (in words)” value (GluN1KD mice; GluN1KD mice) was “reduces hyperactivity”, the “effect on abnormal stereotypic behaviours (in words)” value (GluN1KD mice; GluN1KD mice, open field) was “reduces abnormal stereotypic behaviours” and the “effect on abnormal vertical exploration (risk-taking behaviour) (in words)” value (GluN1KD mice; GluN1KD mice, open field) was “reduces abnormal vertical exploration”. For the same compound, the “Locomotor Activity (total distance traveled)” value (GluN1KD mice; GluN1KD mice, open field) was 5857 ± 1242 cm, the “Stereotypy (total stereotypic movements)” value (GluN1KD mice; GluN1KD mice, open field) was 891 ± 93 and the “Vertical Activity (total)” value (GluN1KD mice; GluN1KD mice, open field) was 479 ± 142. For the same compound, the “Locomotor Activity (total distance traveled)” value (GluN1KD mice; [2]) was 688 ± 193 cm, the “Stereotypy (total stereotypic movements)” value (GluN1KD mice; [2]) was 298.80 ± 45 and the “Vertical Activity (total)” value (GluN1KD mice; [2]) was 43.91 ± 26. The “Hepatic Triglycerides” value (mice fed a HFD diet; [3]) was 48.9 ± 14.6 mg/g tissue weight, the “Serum ALT (ALT activity)” value (mice fed a HFD diet; [3]) was 18.1 ± 4.0 U/L and the “Oil Red O (ORO) stained liver sections (in words)” value (mice fed a HFD diet; [4]) was “smaller ORO-stained vacuoles”. The “effect on macrovesicular and microvesicular steatosis, H&E stained liver sections (in words)” value (mice fed a HFD diet; [4]) was “reduces the macrovesicular and microvesicular steatosis; also recorded: cytoplasmic clearing characteristic of glycogen accumulation”, the “effect on levels of triglycerides (in words)” value (mice fed a HFD diet; [5]) was “significantly reduces” and the “effect on serum ALT (in words)” value (mice fed a HFD diet; [5]) was “significantly reduces”. For the same compound, the melting point was 252 to 254 °C and the “Microsomal stability T1/2 Rat” value [1] was 1.83 h.
